ChEMBL document CHEMBL2010741, “Synthesis and evaluation of a new series of 1'-cyclobutyl-6-(4-piperidyloxy)spiro[benzopyran-2,4'-piperidine] derivatives as high affinity and selective histamine-3 receptor (H3R) antagonists” (Bioorg Med Chem Lett, 2012)

What was measured:
Histamine H3 receptor [1] = target: T1, Histamine H3 receptor (Homo sapiens, UniProt Q9Y5N1); assay: Displacement of [3H]-N-alpha-methylhistamine from human cloned histamine H3 receptor expressed in CHO cells; format: cell-based
Histamine H3 receptor [2] = target: Histamine H3 receptor (Rattus norvegicus, UniProt Q9QYN8); assay: Displacement of [3H]N-alpha-methylhistamine from rat cloned histamine H3 receptor expressed in CHO cells; format: cell-based
[3] = Half life in mouse liver microsomes; format: ADME, Microsome
[4] = Half life in rat liver microsomes; format: ADME, Microsome
[5] = Half life in dog liver microsomes; format: ADME, Canis lupus familiaris, Microsome
[6] = Half life in human liver microsomes; format: ADME, Microsome
Cytochrome P450 1A2 = target: T2, Cytochrome P450 1A2 (Homo sapiens, UniProt P05177); assay: Inhibition of CYP1A2; format: ADME
T2 sequence (P05177 whole entry): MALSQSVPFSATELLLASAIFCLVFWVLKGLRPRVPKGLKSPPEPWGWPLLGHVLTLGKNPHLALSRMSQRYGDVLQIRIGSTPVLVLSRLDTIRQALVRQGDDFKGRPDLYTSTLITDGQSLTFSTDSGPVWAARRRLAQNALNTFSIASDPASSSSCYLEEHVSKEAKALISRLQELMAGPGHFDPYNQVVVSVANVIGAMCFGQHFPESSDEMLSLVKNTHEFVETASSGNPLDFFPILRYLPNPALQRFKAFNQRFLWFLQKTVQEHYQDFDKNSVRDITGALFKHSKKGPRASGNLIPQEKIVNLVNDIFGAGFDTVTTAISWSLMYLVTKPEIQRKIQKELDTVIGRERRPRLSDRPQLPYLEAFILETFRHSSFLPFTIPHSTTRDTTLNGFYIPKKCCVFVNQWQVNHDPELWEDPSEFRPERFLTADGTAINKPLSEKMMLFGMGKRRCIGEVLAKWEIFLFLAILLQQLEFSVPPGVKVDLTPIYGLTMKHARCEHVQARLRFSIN

Cytochrome P450 2C9 = Cytochrome P450 2C9 (Homo sapiens, UniProt P11712); assay: Inhibition of CYP2C9; format: ADME
Cytochrome P450 2C19 = Cytochrome P450 2C19 (Homo sapiens, UniProt P33261); assay: Inhibition of CYP2C19; format: ADME
Cytochrome P450 2D6 = Cytochrome P450 2D6 (Homo sapiens, UniProt P10635); assay: Inhibition of CYP2D6; format: ADME
Cytochrome P450 3A4 = Cytochrome P450 3A4 (Homo sapiens, UniProt P08684); assay: Inhibition of CYP3A4; format: ADME
[7] = Half life in rat at 1 mg/kg, iv; format: ADME, organism-based; set-up: dose 1 mg/kg, route intravenous; conditions: in vivo
[8] = Volume of distribution in rat at 1 mg/kg, iv; format: ADME, organism-based; set-up: dose 1 mg/kg, route intravenous; conditions: in vivo
[9] = Clearance in rat at 1 mg/kg, iv; format: ADME, organism-based; set-up: dose 1 mg/kg, route intravenous; conditions: in vivo
[10] = AUC (infinity) in rat at 5 mg/kg, po; format: ADME, organism-based; set-up: time infinity, dose 5 mg/kg, route oral; conditions: plasma
[11] = Cmax in rat at 5 mg/kg, po; format: ADME, organism-based; set-up: dose 5 mg/kg, route oral; conditions: in vivo
[12] = Oral bioavailability in rat at 5 mg/kg; format: ADME, organism-based; conditions: in vivo
[13] = Ratio of drug level in brain to plasma of rat at 10 mg/kg, ip after 1 hr; format: ADME, organism-based; set-up: dose 10 mg/kg, route intraperitoneal; conditions: read-out: BPR
[14] = Aqueous solubility of the compound at pH 7.4; format: physicochemical; conditions: buffer
[15] = target: Histamine H1 receptor (Homo sapiens) (UniProt P35367); assay: Inhibition of human H1 receptor at 10 uM
[16] = target: Histamine H2 receptor (Homo sapiens) (UniProt P25021); assay: Inhibition of human H2 receptor at 10 uM
[17] = target: Histamine H4 receptor (Homo sapiens) (UniProt Q9H3N8); assay: Inhibition of human H4 receptor at 10 uM
Histamine H3 receptor [18] = target: T1, Histamine H3 receptor; conditions: CHO, 10 uM
[19] = target: Histamine H3 receptor (Rattus norvegicus) (UniProt Q9QYN8); conditions: CHO, 10 uM
Histamine H3 receptor (Rattus norvegicus), sequence (Q9QYN8 whole entry): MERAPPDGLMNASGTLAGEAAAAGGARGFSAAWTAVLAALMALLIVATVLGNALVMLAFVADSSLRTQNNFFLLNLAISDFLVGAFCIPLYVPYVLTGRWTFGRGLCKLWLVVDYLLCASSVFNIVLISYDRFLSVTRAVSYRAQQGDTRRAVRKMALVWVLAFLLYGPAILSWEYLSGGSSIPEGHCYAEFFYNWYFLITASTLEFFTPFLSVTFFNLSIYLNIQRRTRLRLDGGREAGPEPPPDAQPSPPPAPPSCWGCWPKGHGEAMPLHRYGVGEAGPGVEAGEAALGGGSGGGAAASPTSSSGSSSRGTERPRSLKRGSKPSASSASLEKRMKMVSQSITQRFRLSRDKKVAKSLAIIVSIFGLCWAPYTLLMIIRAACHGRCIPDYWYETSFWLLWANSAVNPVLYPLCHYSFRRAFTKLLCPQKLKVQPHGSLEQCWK

T1 sequence (Q9Y5N1 whole entry): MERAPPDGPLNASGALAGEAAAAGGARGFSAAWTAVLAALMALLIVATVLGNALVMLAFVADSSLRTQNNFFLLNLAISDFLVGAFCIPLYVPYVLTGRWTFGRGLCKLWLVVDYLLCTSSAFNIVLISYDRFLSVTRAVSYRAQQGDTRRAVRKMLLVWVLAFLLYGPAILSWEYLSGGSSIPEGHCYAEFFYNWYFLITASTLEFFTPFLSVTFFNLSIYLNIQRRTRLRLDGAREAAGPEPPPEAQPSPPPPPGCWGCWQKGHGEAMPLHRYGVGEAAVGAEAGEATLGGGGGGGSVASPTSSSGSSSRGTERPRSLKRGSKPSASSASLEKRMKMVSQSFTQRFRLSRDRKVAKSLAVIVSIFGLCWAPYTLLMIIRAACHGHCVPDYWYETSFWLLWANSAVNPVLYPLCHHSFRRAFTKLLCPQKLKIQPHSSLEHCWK
Cytochrome P450 2D6, sequence (P10635 whole entry): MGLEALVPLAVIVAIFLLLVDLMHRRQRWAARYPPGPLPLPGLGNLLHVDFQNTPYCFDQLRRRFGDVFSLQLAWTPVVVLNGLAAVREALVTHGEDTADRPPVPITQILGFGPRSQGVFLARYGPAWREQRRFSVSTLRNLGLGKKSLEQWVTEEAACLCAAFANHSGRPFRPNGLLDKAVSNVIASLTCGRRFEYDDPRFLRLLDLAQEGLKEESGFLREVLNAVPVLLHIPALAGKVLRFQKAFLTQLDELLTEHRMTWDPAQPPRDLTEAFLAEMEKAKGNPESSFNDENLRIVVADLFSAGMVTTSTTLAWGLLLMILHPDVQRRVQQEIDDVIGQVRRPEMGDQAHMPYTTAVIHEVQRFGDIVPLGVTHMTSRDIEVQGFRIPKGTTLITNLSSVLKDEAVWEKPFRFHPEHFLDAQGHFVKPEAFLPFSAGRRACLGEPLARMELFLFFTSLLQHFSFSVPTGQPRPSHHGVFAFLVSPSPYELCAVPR
Cytochrome P450 2C9, sequence (P11712 whole entry): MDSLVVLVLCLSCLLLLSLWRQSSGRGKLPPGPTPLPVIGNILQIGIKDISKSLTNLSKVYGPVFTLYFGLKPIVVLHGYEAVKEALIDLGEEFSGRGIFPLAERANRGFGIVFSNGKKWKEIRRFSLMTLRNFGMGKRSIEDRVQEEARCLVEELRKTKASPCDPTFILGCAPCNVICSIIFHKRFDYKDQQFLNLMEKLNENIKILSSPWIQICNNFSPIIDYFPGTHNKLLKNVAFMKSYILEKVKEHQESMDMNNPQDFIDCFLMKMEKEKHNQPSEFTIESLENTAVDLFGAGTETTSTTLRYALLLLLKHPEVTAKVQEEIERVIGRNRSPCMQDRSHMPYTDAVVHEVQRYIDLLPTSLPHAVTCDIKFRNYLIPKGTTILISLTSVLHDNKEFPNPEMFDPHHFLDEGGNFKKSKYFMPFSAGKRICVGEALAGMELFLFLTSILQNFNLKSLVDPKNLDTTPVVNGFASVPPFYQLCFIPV
Cytochrome P450 2C19, sequence (P33261 whole entry): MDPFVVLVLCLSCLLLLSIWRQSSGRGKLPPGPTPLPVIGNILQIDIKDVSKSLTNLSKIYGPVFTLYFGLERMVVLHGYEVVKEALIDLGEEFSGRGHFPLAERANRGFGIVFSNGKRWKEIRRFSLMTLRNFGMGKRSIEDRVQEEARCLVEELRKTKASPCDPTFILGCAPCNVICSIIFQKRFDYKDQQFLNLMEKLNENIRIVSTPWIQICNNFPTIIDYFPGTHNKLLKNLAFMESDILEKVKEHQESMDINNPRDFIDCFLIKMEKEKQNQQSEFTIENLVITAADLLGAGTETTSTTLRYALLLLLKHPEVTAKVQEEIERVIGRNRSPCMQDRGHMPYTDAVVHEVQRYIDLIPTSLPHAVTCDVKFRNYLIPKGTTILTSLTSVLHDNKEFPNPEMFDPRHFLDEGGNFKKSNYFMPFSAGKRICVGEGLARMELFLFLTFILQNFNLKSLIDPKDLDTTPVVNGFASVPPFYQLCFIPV
Cytochrome P450 3A4, sequence (P08684 whole entry): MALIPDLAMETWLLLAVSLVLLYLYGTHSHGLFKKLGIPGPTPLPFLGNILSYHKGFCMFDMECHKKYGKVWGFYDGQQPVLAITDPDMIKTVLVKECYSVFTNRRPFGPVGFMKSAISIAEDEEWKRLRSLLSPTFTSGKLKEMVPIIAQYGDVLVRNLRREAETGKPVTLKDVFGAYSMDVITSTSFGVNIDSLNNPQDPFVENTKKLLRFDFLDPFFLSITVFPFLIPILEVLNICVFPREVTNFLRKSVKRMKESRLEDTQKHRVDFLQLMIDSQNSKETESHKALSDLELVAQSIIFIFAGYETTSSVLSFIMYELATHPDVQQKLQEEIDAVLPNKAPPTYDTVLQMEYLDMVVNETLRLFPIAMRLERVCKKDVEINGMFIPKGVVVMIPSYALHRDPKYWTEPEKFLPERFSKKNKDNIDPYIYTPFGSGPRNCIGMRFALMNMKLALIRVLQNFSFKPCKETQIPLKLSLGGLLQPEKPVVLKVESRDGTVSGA
Histamine H3 receptor (Rattus norvegicus, UniProt Q9QYN8), sequence (Q9QYN8 whole entry): as the sequence (Q9QYN8 whole entry) above
Histamine H1 receptor (Homo sapiens), sequence (P35367 whole entry): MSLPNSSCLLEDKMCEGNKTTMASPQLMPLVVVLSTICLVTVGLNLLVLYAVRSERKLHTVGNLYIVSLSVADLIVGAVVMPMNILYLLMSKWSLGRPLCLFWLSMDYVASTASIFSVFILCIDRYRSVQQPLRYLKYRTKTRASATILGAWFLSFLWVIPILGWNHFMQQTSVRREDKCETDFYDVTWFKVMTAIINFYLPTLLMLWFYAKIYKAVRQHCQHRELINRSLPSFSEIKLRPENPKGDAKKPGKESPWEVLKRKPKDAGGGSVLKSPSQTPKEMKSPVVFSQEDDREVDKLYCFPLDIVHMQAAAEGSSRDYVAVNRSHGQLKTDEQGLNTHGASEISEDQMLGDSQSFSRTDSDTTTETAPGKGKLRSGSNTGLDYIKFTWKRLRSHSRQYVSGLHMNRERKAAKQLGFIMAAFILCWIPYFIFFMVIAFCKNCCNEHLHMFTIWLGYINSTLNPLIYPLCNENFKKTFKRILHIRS
Histamine H4 receptor (Homo sapiens), sequence (Q9H3N8 whole entry): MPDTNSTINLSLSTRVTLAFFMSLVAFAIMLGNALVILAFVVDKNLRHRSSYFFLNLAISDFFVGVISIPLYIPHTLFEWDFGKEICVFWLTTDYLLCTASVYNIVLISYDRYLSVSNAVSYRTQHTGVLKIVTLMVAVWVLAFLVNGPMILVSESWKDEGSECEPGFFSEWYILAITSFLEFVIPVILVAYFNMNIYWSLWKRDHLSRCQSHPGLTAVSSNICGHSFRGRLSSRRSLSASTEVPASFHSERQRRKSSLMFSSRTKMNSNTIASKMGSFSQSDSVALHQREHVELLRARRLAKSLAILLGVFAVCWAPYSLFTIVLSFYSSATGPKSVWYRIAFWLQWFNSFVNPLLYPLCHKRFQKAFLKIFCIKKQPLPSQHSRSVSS
Histamine H2 receptor (Homo sapiens), sequence (P25021 whole entry): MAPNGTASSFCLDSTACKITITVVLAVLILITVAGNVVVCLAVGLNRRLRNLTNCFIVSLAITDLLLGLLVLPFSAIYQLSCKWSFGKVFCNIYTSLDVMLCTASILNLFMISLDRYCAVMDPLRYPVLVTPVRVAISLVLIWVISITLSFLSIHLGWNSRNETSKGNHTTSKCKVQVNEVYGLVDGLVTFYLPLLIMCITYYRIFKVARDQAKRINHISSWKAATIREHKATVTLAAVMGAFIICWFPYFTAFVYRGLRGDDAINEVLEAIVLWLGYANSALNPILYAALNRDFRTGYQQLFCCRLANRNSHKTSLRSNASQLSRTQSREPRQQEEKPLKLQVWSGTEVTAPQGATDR

**Q.** Which Ki (Histamine H3 receptor [1]) does the source give for CC(C)C(=O)N1CCC(Oc2ccc3c(c2)CCC2(CCN(C4CCC4)CC2)O3)CC1 here?
**A.** 2 nM

**Q.** And the Ki (Histamine H3 receptor [2])?
**A.** 6 nM

**Q.** And the half-life [3]?
**A.** > 40 min

**Q.** And the half-life [4]?
**A.** > 40 min

**Q.** And the half-life [5]?
**A.** > 40 min

**Q.** What about the half-life [6] of the same molecule?
**A.** > 40 min

**Q.** What about the IC50 (Cytochrome P450 1A2) of the same molecule?
**A.** > 30000 nM

**Q.** And the IC50 (Cytochrome P450 2C9)?
**A.** > 30000 nM

**Q.** And the IC50 (Cytochrome P450 2C19)?
**A.** > 30000 nM

**Q.** And the IC50 (Cytochrome P450 2D6)?
**A.** > 30000 nM

**Q.** What about the IC50 (Cytochrome P450 3A4) of the same molecule?
**A.** > 30000 nM

**Q.** What about the half-life [7] of the same molecule?
**A.** 66 min

**Q.** And the Vd [8]?
**A.** 1.9 L/kg

**Q.** What about the clearance [9] of the same molecule?
**A.** 18 mL/min/kg

**Q.** And the AUC(0-inf) [10]?
**A.** 410 ng·h/mL

**Q.** What about the Cmax [11] of the same molecule?
**A.** 80 ng/mL

**Q.** And the bioavailability [12]?
**A.** 9%

**Q.** What about the Kp at 1 h [13] of the same molecule?
**A.** 2.3

**Q.** What about the solubility [14] of the same molecule?
**A.** > 100 µg/mL

**Q.** Which Ki (Histamine H3 receptor [1]) does the source give for O=S(=O)(C1CC1)N1CCC(Oc2ccc3c(c2)CCC2(CCN(C4CCC4)CC2)O3)CC1 here?
**A.** 9 nM

**Q.** What about the Ki (Histamine H3 receptor [2]) of the same molecule?
**A.** 18 nM

**Q.** What about the half-life [3] of the same molecule?
**A.** > 40 min

**Q.** What about the half-life [4] of the same molecule?
**A.** > 40 min

**Q.** And the half-life [5]?
**A.** > 40 min

**Q.** What about the half-life [6] of the same molecule?
**A.** > 40 min

**Q.** And the IC50 (Cytochrome P450 1A2)?
**A.** > 30000 nM

**Q.** What about the IC50 (Cytochrome P450 2C9) of the same molecule?
**A.** > 30000 nM

**Q.** And the IC50 (Cytochrome P450 2C19)?
**A.** > 30000 nM

**Q.** And the IC50 (Cytochrome P450 2D6)?
**A.** > 30000 nM

**Q.** What about the IC50 (Cytochrome P450 3A4) of the same molecule?
**A.** > 30000 nM

**Q.** And the half-life [7]?
**A.** 108 min

**Q.** And the Vd [8]?
**A.** 1.6 L/kg

**Q.** And the clearance [9]?
**A.** 10 mL/min/kg

**Q.** And the AUC(0-inf) [10]?
**A.** 435 ng·h/mL

**Q.** And the Cmax [11]?
**A.** 76 ng/mL

**Q.** What about the bioavailability [12] of the same molecule?
**A.** 5%

**Q.** What about the Kp at 1 h [13] of the same molecule?
**A.** 2

**Q.** And the solubility [14]?
**A.** > 100 µg/mL

**Q.** For CCS(=O)(=O)N1CCC(Oc2ccc3c(c2)CCC2(CCN(C4CCC4)CC2)O3)CC1, which Ki (Histamine H3 receptor [1]) is on record?
**A.** 7 nM

**Q.** What about the Ki (Histamine H3 receptor [2]) of the same molecule?
**A.** 24 nM

**Q.** For CC(C)S(=O)(=O)N1CCC(Oc2ccc3c(c2)CCC2(CCN(C4CCC4)CC2)O3)CC1, which Ki (Histamine H3 receptor [1]) is on record?
**A.** 7 nM

**Q.** What about the Ki (Histamine H3 receptor [2]) of the same molecule?
**A.** 27 nM

**Q.** With CC(C)(C)OC(=O)N1CCC(Oc2ccc3c(c2)CCC2(CCN(C4CCC4)CC2)O3)CC1 as the molecule, how does the Ki (Histamine H3 receptor [1]) read?
**A.** 47 nM

**Q.** And the Ki (Histamine H3 receptor [2])?
**A.** 40 nM

**Q.** What does the source list for O=C(C1CC1)N1CCC(Oc2ccc3c(c2)CCC2(CCN(C4CCC4)CC2)O3)CC1?
**A.** Ki (Histamine H3 receptor [1]): 6 nM; Ki (Histamine H3 receptor [2]): 16 nM; half-life [3]: > 40 min; half-life [4]: > 40 min; half-life [5]: > 40 min; half-life [6]: > 40 min; IC50 (Cytochrome P450 1A2): > 30000 nM; IC50 (Cytochrome P450 2C9): > 30000 nM; IC50 (Cytochrome P450 2C19): > 30000 nM; IC50 (Cytochrome P450 2D6): > 30000 nM; IC50 (Cytochrome P450 3A4): > 30000 nM; half-life [7]: 96 min; Vd [8]: 2.7 L/kg; clearance [9]: 20 mL/min/kg; AUC(0-inf) [10]: 359 ng·h/mL; Cmax [11]: 71 ng/mL; bioavailability [12]: 8%; Kp at 1 h [13]: 2.3; solubility [14]: > 100 µg/mL

**Q.** What does the source list for c1cc2c(cc1OC1CCNCC1)CCC1(CCN(C3CCC3)CC1)O2?
**A.** Ki (Histamine H3 receptor [1]): 3 nM; Ki (Histamine H3 receptor [2]): 6 nM

**Q.** For CC(=O)N1CCC(Oc2ccc3c(c2)CCC2(CCN(C4CCC4)CC2)O3)CC1, which Ki (Histamine H3 receptor [1]) is on record?
**A.** 4 nM

**Q.** And the Ki (Histamine H3 receptor [2])?
**A.** 10 nM

**Q.** What about the half-life [3] of the same molecule?
**A.** > 40 min

**Q.** What about the half-life [4] of the same molecule?
**A.** > 40 min

**Q.** What about the half-life [5] of the same molecule?
**A.** > 40 min

**Q.** And the half-life [6]?
**A.** > 40 min

**Q.** What about the IC50 (Cytochrome P450 1A2) of the same molecule?
**A.** > 30000 nM

**Q.** What about the IC50 (Cytochrome P450 2C9) of the same molecule?
**A.** > 30000 nM

**Q.** What about the IC50 (Cytochrome P450 2C19) of the same molecule?
**A.** > 30000 nM

**Q.** And the IC50 (Cytochrome P450 2D6)?
**A.** > 30000 nM

**Q.** What about the IC50 (Cytochrome P450 3A4) of the same molecule?
**A.** > 30000 nM

**Q.** Which results are given for CS(=O)(=O)N1CCC(Oc2ccc3c(c2)CCC2(CCN(C4CCC4)CC2)O3)CC1?
**A.** Ki (Histamine H3 receptor [1]): 7 nM; Ki (Histamine H3 receptor [2]): 17 nM; half-life [3]: > 40 min; half-life [4]: > 40 min; half-life [5]: > 40 min; half-life [6]: > 40 min; IC50 (Cytochrome P450 1A2): > 30000 nM; IC50 (Cytochrome P450 2C9): > 30000 nM; IC50 (Cytochrome P450 2C19): > 30000 nM; IC50 (Cytochrome P450 2D6): 18000 nM; IC50 (Cytochrome P450 3A4): > 30000 nM; inhibition [15]: < 20%; inhibition [16]: < 20%; inhibition [17]: < 20%; half-life [7]: 36 min; Vd [8]: 0.5 L/kg; clearance [9]: 9 mL/min/kg; AUC(0-inf) [10]: 392 ng·h/mL; Cmax [11]: 83 ng/mL; bioavailability [12]: 4%; Kp at 1 h [13]: 1.5; solubility [14]: > 100 µg/mL

**Q.** With Oc1ccc2c(c1)CCC1(CCN(C3CCC3)CC1)O2 as the molecule, how does the Ki (Histamine H3 receptor [1]) read?
**A.** > 3000 nM

**Q.** What about the Ki (Histamine H3 receptor [2]) of the same molecule?
**A.** > 3000 nM

**Q.** What about the inhibition (Histamine H3 receptor [18]) of the same molecule?
**A.** 50%

**Q.** What about the inhibition [19] of the same molecule?
**A.** 50%
